Source: patent publication US5786344A, “Camptothecin drug combinations and methods with reduced side effects” (priority 1995, dated 1998)
“And” between values parts separate entries of the source, which are not always exact repeats. Identical values can stand only once. “Also recorded” adds a separate entry of the source.

Experiments:
[1] = Phase I pharmacokinetics of CPT-11, SN-38 and SN-38G in plasma/urine after 90 min iv infusion; settings: for "Biliary ratio" (median): AUC SN-38/SN-38G
Description: All patients met the standard laboratory criteria including criteria for adequate organ function. Informed, written consent was obtained from all patients prior to their first dose of CPT-11. The drug was given in 500 cc normal saline by intravenous infusion over 90 minutes on a weekly basis for four doses in a sixweek cycle. […] A second cycle was given with the same dose and schedule used during cycle 1. […] Patients who experienced dose limiting neutropenia were eligible to receive G-CSF at 5 μg/kg/day according to the criteria defined below.
To determine drug and metabolite levels, heparinized blood samples obtained on the first cycle of therapy, were centrifuged and the plasma was stored at -70° C. until analysis. CPT (camptothecin, 1 μg/ml, obtained from the National Cancer Institute, Bethesda, Md.) was used as an internal standard. One hundred μl of plasma was extracted with 2 ml of methanol, centrifuged at 2500×g for 10 min and the supernatant was evaporated to dryness. Reconstitution was done with 200 μl of methanol containing 0.1% 10M HCL (pH~2.0). For the estimation of SN-38G, plasma samples were extracted as described above. Prior to reconstitution, the samples were incubated with 1000 U of glucuronidase (Sigma Chemical Co., St. Louis, Mo.) for 2 hours at 37° C.
Analysis was done using a C18 column (μBondapak, 10 μm, 3.9×300 mm; Waters Associates, Milford, Mass.) preceded by a Novapak C18 guard column. […] Detection was monitored by a Hitachi F1050 Fluorescence detector (Hitachi Instruments Inc., Naperville, Ill.) with a λex at 375 nm and λem at 566 nm. […] SN-38G concentrations were determined as the increase in SN-38 concentrations following incubation with glucuronidase.
The plasma concentration-time data of CPT-11, SN-38 and SN-38G were analyzed by non-compartmental analysis using PCNONLIN (SCI, Lexington, Ky.). The area under the plasma concentration-time curve (AUC) from time zero (predose) to the time of the last quantifiable concentration (AUCt) was calculated by the trapezoidal rule. The AUC extrapolated to time infinity (AUCt →.infin.) was estimated by dividing the last quantifiable concentration by the terminal rate constant obtained by the log-linear regression of the terminal elimination phase. The AUC was the summation of AUCt and AUCt→.infin.. Clearance (CL) was estimated as the ratio of the dose and AUC.
The present study employed this principle to obtain an estimate of SN-38 excreted in the bile. Since glucuronidation is the major pathway of elimination of SN-38, the fraction of SN-38 not conjugated would be primarily excreted in the bile. The net biliary concentration of SN-38 would then be a resultant of its formation and elimination. This concentration was expressed as the "biliary ratio" which was the ratio of AUC of SN-38 to SN-38G. To control for individual variability in the amount of available drug, the ratio was multiplied by the AUC of CPT-11 to obtain a "biliary index" of SN-38.
The nonparametric Mann-Whitney test was employed to test for differences in pharmacokinetic outcomes between two patient groups, defined by the worst severity of diarrhea experienced in the first two cycles of CPT-11 treatment. Statistical tests were performed in the Number Cruncher Statistical System (Dr. Jerry Hintz, Kaysville, Utah). A two-sided significance level of less than or equal to 0.05 was considered statistically significant.

in vivo = settings: rat, in vivo, iv, 20 mg/kg
From the text: (§1) Of these 2 types of inducers, phenobarbital has been used as an […] and a mildly sedative agent in humans. The inventors' objective here was to investigate the effect of phenobarbital administration on the glucuronidation of SN-38 in rats.
(§2) Animal protocol: Female Wistar rats (~200 gm) having a permanent catheter installed in the right jugular vein were obtained from Charles River Breeding Laboratories (Wilmington, Mass.).
(§3) Three rats were given a single intraperitoneal dose of 100 mg/kg phenobarbital in physiological saline followed by 0.1% (w/v) phenobarbital in drinking water for four days. […] After each sample the catheter was flushed with an equal volume of physiologic saline. The samples were immediately centrifuged at 2500×g for 10 minutes and the plasma obtained was stored at -70° C. until analysis.
(§4) Data Analysis: The plasma concentration-time profile of the control and pretreated groups of rats were analyzed using non-compartmental methods (PCNONLIN, SCI, Lexington, Ky.). […] The nonparametric Mann-Whitney test was used to test for differences in AUC between the control and pretreated groups.

UDP-GT = experiment: in vivo
From the text: as §1, §2, §3, §4

p-glycoprotein = molecular target: T1, p-glycoprotein (Homo sapiens, UniProt P08183); experiment: in vitro; assay type: binding
T1 construct: membrane vesicles from the multidrug resistant breast tumor cell line; endogenous in cells; host or cells: MCF-7/Adr (multidrug resistant human breast cancer cell line), membrane vesicles
From the text: FIG. 5. […]. Membrane vesicles from the multidrug resistant human breast cancer tumor cell line […] were used. […].

tumors = settings: preclinical and clinical tumors; cited from earlier work
[2] = rats, cited from earlier work
[3] = human, in vivo; cited from earlier work

T1 sequence (P08183 whole entry): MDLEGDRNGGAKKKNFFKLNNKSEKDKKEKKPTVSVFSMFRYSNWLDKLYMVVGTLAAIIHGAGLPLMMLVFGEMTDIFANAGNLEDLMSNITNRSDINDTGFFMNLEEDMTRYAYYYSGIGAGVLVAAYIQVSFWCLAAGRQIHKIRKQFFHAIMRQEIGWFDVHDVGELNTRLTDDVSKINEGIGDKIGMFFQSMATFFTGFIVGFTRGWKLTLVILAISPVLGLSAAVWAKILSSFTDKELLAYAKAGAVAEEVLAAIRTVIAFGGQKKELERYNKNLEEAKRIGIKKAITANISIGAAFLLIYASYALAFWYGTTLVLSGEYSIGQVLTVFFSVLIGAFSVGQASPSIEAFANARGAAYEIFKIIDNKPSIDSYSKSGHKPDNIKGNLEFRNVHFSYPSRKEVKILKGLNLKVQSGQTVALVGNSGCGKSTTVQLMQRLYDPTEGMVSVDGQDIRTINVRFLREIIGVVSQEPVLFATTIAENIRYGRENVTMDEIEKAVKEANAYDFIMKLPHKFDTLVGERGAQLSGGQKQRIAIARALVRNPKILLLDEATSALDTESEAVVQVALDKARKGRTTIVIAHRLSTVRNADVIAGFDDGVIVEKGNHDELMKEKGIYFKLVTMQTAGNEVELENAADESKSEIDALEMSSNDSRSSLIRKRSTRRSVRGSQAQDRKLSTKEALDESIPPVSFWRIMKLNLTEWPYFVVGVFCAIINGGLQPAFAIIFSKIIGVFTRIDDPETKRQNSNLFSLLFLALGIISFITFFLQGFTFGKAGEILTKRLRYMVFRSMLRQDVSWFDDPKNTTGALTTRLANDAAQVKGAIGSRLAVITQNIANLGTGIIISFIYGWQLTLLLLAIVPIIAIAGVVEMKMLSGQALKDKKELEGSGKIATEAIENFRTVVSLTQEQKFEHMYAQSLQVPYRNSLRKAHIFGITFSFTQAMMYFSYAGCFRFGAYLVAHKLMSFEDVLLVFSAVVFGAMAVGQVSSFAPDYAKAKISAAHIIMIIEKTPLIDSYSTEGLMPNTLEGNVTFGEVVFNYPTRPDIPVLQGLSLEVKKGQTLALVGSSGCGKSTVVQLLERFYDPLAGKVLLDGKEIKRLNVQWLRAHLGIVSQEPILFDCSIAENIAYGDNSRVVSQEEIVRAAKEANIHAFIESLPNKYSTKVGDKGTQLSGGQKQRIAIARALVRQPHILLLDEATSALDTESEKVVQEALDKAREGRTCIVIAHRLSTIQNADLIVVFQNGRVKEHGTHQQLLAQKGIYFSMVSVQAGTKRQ

CCc1c2c(nc3ccc(OC(=O)N4CCC(N5CCCCC5)CC4)cc13)-c1cc3c(c(=O)n1C2)COC(=O)[C@]3(O)CC [CPT-11, 7-ethyl-10-[4-(1-piperidino)-1-piperidino)carbonyloxycamptot hecin]
"biliary index" (median) ([1]; 145 mg/m2, Grade 0-2 diarrhea, p=0.03): 2275 and 2276 | "biliary index" (median) ([1]; 145 mg/m2, Grade 3-4 diarrhea, p=0.03): 4747 | "Biliary ratio" (median) ([1]; 145 mg/m^2, Grade 0-2 diarrhea, n = 5): 0.27 | "biliary index" (median) ([1]; 145 mg/m^2, Grade 0-2 diarrhea, n = 5, p 0.03): 2276 ng·h/mL | "Biliary ratio" (median) ([1]; 145 mg/m^2, Grade 3-4 diarrhea, n = 5): 0.53 | "biliary index" (median) ([1]; 145 mg/m^2, Grade 3-4 diarrhea, n = 5, p 0.03): 4747 ng·h/mL | "biliary index" ([1]; 4 of 5 patients with grade 3-4 diarrhea, 145 mg/m^2): above 4000 | effect of pretreatment with G-CSF on pharmacokinetics ([1]; CPT-11 and its metabolites): no effect | "biliary index" (median) ([1]; all dose levels, grade 0-2 diarrhea, n=12, p=0.0004): 2228 | "biliary index" (median) ([1]; all dose levels, grade 3-4 diarrhea, n=9, p=0.0004): 5499 | increase of AUC from 100 to 175 mg/m^2 ([1]; in vivo): 2.6 fold | interpatient variability of AUC (percent coefficient of variation) ([1]; in vivo): 17-57% | patients with grade 3-4 diarrhea having index estimates above 4000 ([1]; in vivo): about 90% | "biliary index" ([1]; one patient, grade 3-4 diarrhea, c diff+): 3028 | AUC at 6 h (in vivo; AUC CPT-11, control, CPT-11 20 mg/kg iv, n = 4, 0-6 h): 7700 ± 2670 ng·h/mL | AUC at 6 h (in vivo; AUC CPT-11, phenobarbital pretreated, CPT-11 20 mg/kg, n = 2): 3060 ng·h/mL | decrease in availability (UDP-GT; UDP-GT induction by phenobarbital): ~2 fold | decline in AUC (UDP-GT; phenobarbital pretreated): 60% | Change in AUC CPT-11 (UDP-GT; phenobarbital pretreated vs control): -60.29% | substrate of p-glycoprotein (p-glycoprotein): substrates of p-glycoprotein | inhibition at 10 µM (p-glycoprotein; human, mcf-7/adr membrane vesicles): 80% | antitumor activity (tumors): significant activity in a broad spectrum of in vitro and in vivo tumor models; also recorded: antitumor activity in phase II trials | biliary radioactivity excreted over 24 h as ([2]; 24 h): 55% | biliary radioactivity reabsorbed from the intestine [2]: approximately 18% | DLT in Phase I studies in Japan and Europe/US [3]: either myelosuppression or diarrhea
